In the NIST ThermoML archive (doi:10.1007/s10765-010-0717-9):
± gives the expanded uncertainty stated by the source.

Conditions: 298.15 K; 101.33 kPa; Liquid; Pycnometric method

SMILES	mass density [kg/m3]
Cc1ccccc1 [toluene]	862.21 ± 5.4
Cc1ccc(C)cc1 [1,4-dimethylbenzene]	856.58 ± 5.3
Cc1ccccc1C [1,2-dimethylbenzene]	875.99 ± 5.6
